Patent publication US4866066A, “Thiomethylpyridine derivatives and their use for eliciting a bronchosecretolytic or mucolytic response” (Ludwig Heumann & Co. GmbH, priority 1982, dated 1989)
Counter-ions that a name gives are not always drawn. Like-named read-outs stand apart in the source and are kept apart here.

Tests used:
[1] = system: tracheal secretion of phenol red; assay: Secretostimulating activity: tracheal secretion of phenol red after oral administration to non-anaesthetized mice; type: in vivo; details: for ED50: Table I, non-anaesthetized mice, promotion of tracheal phenol red secretion, calculated from regression curves
Description: The increase in the tracheal secretion of phenol red is a measure of bronchosecretolytic activity. The relevant activity of the test substances was studied after oral administration to non-anaesthetized mice. The ED50 -values indicated in Table I were calculated using the regression curves.

bronchial mucus = assay: Mucosecretolytic activity in dogs: viscosity of bronchial mucus after i.v. administration; type: in vivo, mongrel dogs; details: for Viscosity, 1 hour after administration: 1 hour after 10 mg/kg i.v.; for Viscosity, 1 hour after administration / Viscosity, initial value: mucus 1% w/v in 0.1M tris-buffer pH 7; for reduction in the viscosity of the bronchial mucus (in words): i.v., dogs, identical quantity by weight; for Viscosity, initial value: immediately before administration, 10 mg/kg i.v., baseline
Description: Bronchial mucus was removed by means of a bronchoscope from anaesthetized mongrel dogs immediately before and 1 hour after intravenous administration of the test substances and taken up in phosphate buffer. After dialyzation and freeze-drying, the mucus samples were taken up in 0.1M tris-buffer (pH 7) (final concentration 1% w/v). Viscosity was measured by means of a rotary viscosimeter (as manufactured by Contraves, Stuttgart).

mice = details: p.o., under identical conditions; cited from earlier work
[2] = Acute oral toxicity in mice; details: mouse, in vivo, p.o.
Excerpt: The compounds according to the invention show low oral toxicity in acute tests.

2-(methylthio-3-pyridyl)-oxazolo(4,5-c) pyridine dihydrochloride [Example 10]
ED50 [1]: 12 mg/kg

Nc1c(Br)cc(Br)cc1CN[C@H]1CC[C@H](O)CC1 [Ambroxol, trans-4-(2-amino-3,5-dibromobenzyl)-aminocyclohexanol, reference compound]
ED50 ([1]; Mus musculus, read-out: ED50): 250 mg/kg | Viscosity, 1 hour after administration (bronchial mucus): 2.3 mPa × s | reduction in the viscosity of the bronchial mucus (in words) (bronchial mucus): distinct reduction in the viscosity of the bronchial mucus | Viscosity, initial value (bronchial mucus): 3.8 mPa × s | toxicity compared with 2-(pyridyl-3-methylthio)-pyrimidine hydrochloride (in words) (mice): slidingly less toxic

c1cnc(SCc2cccnc2)nc1 [Example 1, 2-(pyridyl-3-methylthio)-pyrimidine hydrochloride]
ED50 ([1]; Mus musculus, read-out: ED50): 1.5 mg/kg | activity in promoting tracheal secretion of phenol red (in words) ([1]; mice, among compounds of Table I): strongest activity | effect in promoting the secretion of phenol red relative to Ambroxol ([1]; mice, times stronger than Ambroxol): approximately 160 times | Viscosity, 1 hour after administration (bronchial mucus): 1.2 mPa × s | reduction in the viscosity of the bronchial mucus (in words) (bronchial mucus): even more distinct reduction in the viscosity of the bronchial mucus | Viscosity, initial value (bronchial mucus): 3.9 mPa × s | LD50 [2]: 1160 mg/kg

c1ccc(CSc2ncccn2)nc1 [Example 2, 2-(pyridyl-2-methylthio)-pyrimidine hydrochloride]
ED50 ([1]; Mus musculus, read-out: ED50): 400 mg/kg

Cc1ccnc(SCc2cccnc2)n1 [Example 3, 2-(pyridyl-3-methylthio)-4-methyl-pyrimidine hydrochloride]
ED50 ([1]; Mus musculus, read-out: ED50): 10 mg/kg

Cc1cc(C)nc(SCc2cccnc2)n1 [Example 4, 2-(pyridyl-3-methylthio)-4,6-dimethyl-pyrimidine hydrochloride]
ED50 ([1]; Mus musculus, read-out: ED50): 12 mg/kg

c1ccc(SCc2cccnc2)nc1 [Example 5, 2-(pyridyl-3-methylthio)-pyridine dihydrochloride]
ED50 ([1]; Mus musculus, read-out: ED50): 2.1 mg/kg

c1ccc(CSc2ccccn2)nc1 [Example 6, 2-(pyridyl-2-methylthio)-pyridine dihydrochloride]
ED50 ([1]; Mus musculus, read-out: ED50): 6.3 mg/kg

c1cncc(CSc2nc3ccccc3o2)c1 [Example 7]
ED50 ([1]; Mus musculus, read-out: ED50): 15 mg/kg

Cc1ccc2nc(SCc3cccnc3)oc2c1 [Example 8, hydrochloride]
ED50 ([1]; Mus musculus, read-out: ED50): 15 mg/kg

c1ccc(CSc2nc3ccccc3o2)nc1 [Example 9, 2-(methylthio-2-pyridyl)-benzoxazole oxalate]
ED50 ([1]; Mus musculus, read-out: ED50): 45 mg/kg
